Article PMC2714806 (2009)
Values joined by “and” are separate entries in the source; they are usually repeats but may differ in a detail not shown here. Identical values can stand only once. “Also recorded” adds a separate entry of the source. Ends that are not written are not given here.

Columns and labels:
[1] = tested on: NMDA receptor; conditions: cited from earlier work
[2] = tested on: NR1a/NR2A-, NR1a/NR2B-, NR1b/NR2A-, and NR1b/NR2B-containing receptors; conditions: cited from earlier work
[3] = format: physicochemical; conditions: pH 6.5
[4] = tested on: NR1b/2B NMDA receptor; format: cell-based; conditions: pH 7.35
[5] = tested on: NR1b/2A NMDA receptor; format: cell-based; conditions: pH 7.35
[6] = format: binding; conditions: pH 6.5
[7] = format: physicochemical; conditions: pH 6.5; remark: listed apart in the source
[8] = format: binding; conditions: pH 6.5; remark: listed apart in the source
[9] = tested on: NR1b/2A and NR1b/2B NMDA receptors; format: cell-based; conditions: 40 µM

## GEγγYQγMLγNLRγAEVKKNA-NH2 [con-T[K7γ]]
[1]
  inhibition of ion flow through NMDA receptor complexes: potent and specific inhibitors

## con-T: naturally-occurring conantokin derived from Conus tulipa (GEEEYQKMLENLREAEVKKNA; ends and bridges not checked; UniProt P17684 1-21, looked up)
[1]
  inhibition of current flow through the NMDA receptor: potent and selective inhibitor of current flow through the NMDA receptor
[2]; 40 µM
  antagonism of NMDA receptor activity: completely antagonizes NMDA receptor activity at all subunit combinations

## con-T[M8N]: Met8-substituted con-T peptide (GEEEYQKNLENLREAEVKKNA; ends and bridges not checked; UniProt P17684 1-21, looked up, variant M8N)
[2]
  NR2A-/NR2B-selectivity: non-selective

## con-T[γ4E,K7γ,V17γ] [con-T-tri]
[3]
  MWapp (apparent molecular weight): 3320 ± 300 and 6490 ± 450 and 3460 ± 190
  self-association: did not result in marked self-association
[4]
  effect on NMDA-evoked current: modest inhibitory activity
[5]
  effect on NMDA-evoked current: current potentiation; also recorded: Potentiation of currents
[6]
  n (stoichiometry of metal ion binding): 1.0
[7]
  helicity (in words): marginal helicity; also recorded: high percentage of helix content; also recorded: negligible helicity; also recorded: highly helical character
[8]
  Kd: 26 µM
[9]
  NR2A-/NR2B-selectivity: NR2B selective
